According to ChEMBL document CHEMBL1671662, “In vitro activities of telavancin and six comparator agents against anaerobic bacterial isolates” (2009):
≈ marks a conversion by molar mass, not a printed value.

Columns and labels:
Type in all cases: functional
Ruminococcus gnavus = experiment: Antibacterial activity against Ruminococcus gnavus by CLSI M11-A6 agar dilution method; settings: Mediterraneibacter gnavus
Fusobacterium mortiferum = experiment: Antibacterial activity against Fusobacterium mortiferum by CLSI M11-A6 agar dilution method
[1] = system: Bifidobacterium pseudolongum; experiment: Antibacterial activity against Bifidobacterium pseudolongum by CLSI M11-A6 agar dilution method
[2] = system: Parabacteroides distasonis; experiment: Antibacterial activity against Parabacteroides distasonis by CLSI M11-A6 agar dilution method
Clostridium scindens = experiment: Antibacterial activity against Clostridium scindens by CLSI M11-A6 agar dilution method
Prevotella bivia = experiment: Antibacterial activity against Prevotella bivia by CLSI M11-A6 agar dilution method
[3] = system: Sutterella wadsworthensis; experiment: Antibacterial activity against Sutterella wadsworthensis by CLSI M11-A6 agar dilution method
Clostridium subterminale = experiment: Antibacterial activity against Clostridium subterminale by CLSI M11-A6 agar dilution method
[4] = system: Bifidobacterium adolescentis; experiment: Antibacterial activity against Bifidobacterium adolescentis by CLSI M11-A6 agar dilution method
Thomasclavelia ramosa = experiment: Antibacterial activity against Clostridium ramosum by CLSI M11-A6 agar dilution method
Clostridium sporogenes = experiment: Antibacterial activity against Clostridium sporogenes by CLSI M11-A6 agar dilution method
[5] = system: Streptococcus intermedius; experiment: Antibacterial activity against Streptococcus intermedius by CLSI M11-A6 agar dilution method
[6] = system: Propionibacterium propionicum; experiment: Antibacterial activity against Propionibacterium propionicus by CLSI M11-A6 agar dilution method; settings: Arachnia propionica
Clostridium tertium = experiment: Antibacterial activity against Clostridium tertium by CLSI M11-A6 agar dilution method
Hoylesella oralis = experiment: Antibacterial activity against Prevotella oralis by CLSI M11-A6 agar dilution method
Ruminococcus sp. = experiment: Antibacterial activity against Ruminococcus sp. by CLSI M11-A6 agar dilution method
Bilophila wadsworthia = experiment: Antibacterial activity against Bilophila wadsworthia by CLSI M11-A6 agar dilution method
[7] = system: Clostridium paraputrificum; experiment: Antibacterial activity against Clostridium paraputrificum by CLSI M11-A6 agar dilution method
Clostridium hathewayi = experiment: Antibacterial activity against Clostridium hathewayi by CLSI M11-A6 agar dilution method; settings: Hungatella hathewayi
[8] = system: Bacteroides thetaiotaomicron; experiment: Antibacterial activity against Bacteroides thetaiotaomicron by CLSI M11-A6 agar dilution method
Clostridium perfringens = experiment: Antibacterial activity against Clostridium perfringens by CLSI M11-A6 agar dilution method
Ruminococcus lactaris = experiment: Antibacterial activity against Ruminococcus lactaris by CLSI M11-A6 agar dilution method
[9] = system: Streptococcus constellatus; experiment: Antibacterial activity against Streptococcus constellatus by CLSI M11-A6 agar dilution method
Prevotella nigrescens = experiment: Antibacterial activity against Prevotella nigrescens by CLSI M11-A6 agar dilution method
[10] = system: Peptoniphilus asaccharolyticus; experiment: Antibacterial activity against Peptoniphilus asaccharolyticus by CLSI M11-A6 agar dilution method
Parabacteroides merdae = experiment: Antibacterial activity against Parabacteroides merdae by CLSI M11-A6 agar dilution method
Clostridium beijerinckii = experiment: Antibacterial activity against Clostridium beijerinckii by CLSI M11-A6 agar dilution method
Ruminococcus torques = experiment: Antibacterial activity against Ruminococcus torques by CLSI M11-A6 agar dilution method; settings: Mediterraneibacter torques
Ruminococcus albus = experiment: Antibacterial activity against Ruminococcus albus by CLSI M11-A6 agar dilution method; settings: Hominimerdicola alba
Collinsella aerofaciens = experiment: Antibacterial activity against Colinsella aerofaciens by CLSI M11-A6 agar dilution method
Clostridium bartlettii = experiment: Antibacterial activity against Clostridium bartlettii by CLSI M11-A6 agar dilution method; settings: Intestinibacter bartlettii
Phocaeicola vulgatus = experiment: Antibacterial activity against Bacteroides vulgatus by CLSI M11-A6 agar dilution method
Actinomyces naeslundii = experiment: Antibacterial activity against Actinomyces naeslundii by CLSI M11-A6 agar dilution method
Parvimonas micra = experiment: Antibacterial activity against Peptostreptococcus micros by CLSI M11-A6 agar dilution method
Bifidobacterium longum = experiment: Antibacterial activity against Bifidobacterium longum by CLSI M11-A6 agar dilution method
Finegoldia magna = experiment: Antibacterial activity against Finegoldia magna by CLSI M11-A6 agar dilution method
Odoribacter splanchnicus = experiment: Antibacterial activity against Bacteroides splanchnicus by CLSI M11-A6 agar dilution method
Prevotella disiens = experiment: Antibacterial activity against Prevotella P disiens by CLSI M11-A6 agar dilution method
[11] = system: Enterocloster clostridioformis; experiment: Antibacterial activity against Clostridium clostridioforme by CLSI M11-A6 agar dilution method
Flavonifractor plautii = experiment: Antibacterial activity against Clostridium orbiscindens by CLSI M11-A6 agar dilution method
Prevotella denticola = experiment: Antibacterial activity against Prevotella P denticola by CLSI M11-A6 agar dilution method
Streptococcus anginosus = experiment: Antibacterial activity against Streptococcus anginosus by CLSI M11-A6 agar dilution method
Fusobacterium varium = experiment: Antibacterial activity against Fusobacterium varium by CLSI M11-A6 agar dilution method

## CN[C@H](CC(C)C)C(=O)N[C@H]1C(=O)N[C@@H](CC(N)=O)C(=O)N[C@H]2C(=O)N[C@H]3C(=O)N[C@H](C(=O)N[C@H](C(=O)O)c4cc(O)cc(O)c4-c4cc3ccc4O)[C@H](O)c3ccc(c(Cl)c3)Oc3cc2cc(c3O[C@@H]2O[C@H](CO)[C@@H](O)[C@H](O)[C@H]2O[C@H]2C[C@](C)(N)[C@H](O)[C@H](C)O2)Oc2ccc(cc2Cl)[C@H]1O [VANCOMYCIN]
Ruminococcus gnavus
  MIC50: 0.5 µg/mL (≈ 0.345 µM)
  MIC90: 1 µg/mL (≈ 0.69 µM)
Fusobacterium mortiferum
  MIC: > 128 µg/mL
  MIC50: > 128 µg/mL
  MIC90: > 128 µg/mL
[1]
  MIC50: 0.5 µg/mL (≈ 0.345 µM)
  MIC90: 4 µg/mL (≈ 2.76 µM)
[2]
  MIC50: 128 µg/mL (≈ 88.3 µM)
  MIC90: 128 µg/mL (≈ 88.3 µM)
Clostridium scindens
  MIC50: 1 µg/mL (≈ 0.69 µM)
  MIC90: 4 µg/mL (≈ 2.76 µM)
Prevotella bivia
  MIC50: 32 µg/mL (≈ 22.1 µM)
  MIC90: > 128 µg/mL
[3]
  MIC: > 128 µg/mL
  MIC50: > 128 µg/mL
  MIC90: > 128 µg/mL
Clostridium subterminale
  MIC: 0.5 µg/mL (≈ 0.345 µM)
  MIC50: 0.5 µg/mL (≈ 0.345 µM)
  MIC90: 1 µg/mL (≈ 0.69 µM)
[4]
  MIC50: 0.5 µg/mL (≈ 0.345 µM)
  MIC90: 4 µg/mL (≈ 2.76 µM)
Thomasclavelia ramosa
  MIC50: 8 µg/mL (≈ 5.52 µM)
  MIC90: 8 µg/mL (≈ 5.52 µM)
Clostridium sporogenes
  MIC50: 1 µg/mL (≈ 0.69 µM)
  MIC90: 4 µg/mL (≈ 2.76 µM)
[5]
  MIC50: 2 µg/mL (≈ 1.38 µM)
  MIC90: 2 µg/mL (≈ 1.38 µM)
[6]
  MIC50: 0.5 µg/mL (≈ 0.345 µM)
  MIC90: 4 µg/mL (≈ 2.76 µM)
Clostridium tertium
  MIC50: 1 µg/mL (≈ 0.69 µM)
  MIC90: 4 µg/mL (≈ 2.76 µM)
Hoylesella oralis
  MIC50: 32 µg/mL (≈ 22.1 µM)
  MIC90: > 128 µg/mL
Ruminococcus sp.
  MIC50: 0.5 µg/mL (≈ 0.345 µM)
  MIC90: 1 µg/mL (≈ 0.69 µM)
Bilophila wadsworthia
  MIC: > 128 µg/mL
  MIC50: > 128 µg/mL
  MIC90: > 128 µg/mL
[7]
  MIC50: 1 µg/mL (≈ 0.69 µM)
  MIC90: 4 µg/mL (≈ 2.76 µM)
Clostridium hathewayi
  MIC50: 1 µg/mL (≈ 0.69 µM)
  MIC90: 1 µg/mL (≈ 0.69 µM)
[8]
  MIC50: > 128 µg/mL
  MIC90: > 128 µg/mL
Clostridium perfringens
  MIC: 0.5 µg/mL (≈ 0.345 µM)
  MIC50: 0.5 µg/mL (≈ 0.345 µM)
  MIC90: 1 µg/mL (≈ 0.69 µM)
Ruminococcus lactaris
  MIC50: 0.5 µg/mL (≈ 0.345 µM)
  MIC90: 1 µg/mL (≈ 0.69 µM)
[9]
  MIC50: 2 µg/mL (≈ 1.38 µM)
  MIC90: 2 µg/mL (≈ 1.38 µM)
Prevotella nigrescens
  MIC50: 32 µg/mL (≈ 22.1 µM)
  MIC90: > 128 µg/mL
[10]
  MIC50: 0.5 µg/mL (≈ 0.345 µM)
  MIC90: 1 µg/mL (≈ 0.69 µM)
Parabacteroides merdae
  MIC50: 128 µg/mL (≈ 88.3 µM)
  MIC90: 128 µg/mL (≈ 88.3 µM)
Clostridium beijerinckii
  MIC50: 1 µg/mL (≈ 0.69 µM)
  MIC90: 4 µg/mL (≈ 2.76 µM)
Ruminococcus torques
  MIC50: 0.5 µg/mL (≈ 0.345 µM)
  MIC90: 1 µg/mL (≈ 0.69 µM)
Ruminococcus albus
  MIC50: 0.5 µg/mL (≈ 0.345 µM)
  MIC90: 1 µg/mL (≈ 0.69 µM)
Collinsella aerofaciens
  MIC50: 0.5 µg/mL (≈ 0.345 µM)
  MIC90: 4 µg/mL (≈ 2.76 µM)
Clostridium bartlettii
  MIC50: 1 µg/mL (≈ 0.69 µM)
  MIC90: 4 µg/mL (≈ 2.76 µM)
Phocaeicola vulgatus
  MIC50: 64 µg/mL (≈ 44.2 µM)
  MIC90: 128 µg/mL (≈ 88.3 µM)
Actinomyces naeslundii
  MIC50: 0.5 µg/mL (≈ 0.345 µM)
  MIC90: 4 µg/mL (≈ 2.76 µM)
Parvimonas micra
  MIC50: 0.5 µg/mL (≈ 0.345 µM)
  MIC90: 1 µg/mL (≈ 0.69 µM)
Bifidobacterium longum
  MIC50: 0.5 µg/mL (≈ 0.345 µM)
  MIC90: 4 µg/mL (≈ 2.76 µM)
Finegoldia magna
  MIC50: 0.5 µg/mL (≈ 0.345 µM)
  MIC90: 1 µg/mL (≈ 0.69 µM)
Odoribacter splanchnicus
  MIC50: 128 µg/mL (≈ 88.3 µM)
  MIC90: > 128 µg/mL
Prevotella disiens
  MIC50: 32 µg/mL (≈ 22.1 µM)
  MIC90: > 128 µg/mL
[11]
  MIC50: 2 µg/mL (≈ 1.38 µM)
  MIC90: 2 µg/mL (≈ 1.38 µM)
Flavonifractor plautii
  MIC50: 1 µg/mL (≈ 0.69 µM)
  MIC90: 4 µg/mL (≈ 2.76 µM)
Prevotella denticola
  MIC50: 32 µg/mL (≈ 22.1 µM)
  MIC90: > 128 µg/mL
Streptococcus anginosus
  MIC50: 2 µg/mL (≈ 1.38 µM)
  MIC90: 2 µg/mL (≈ 1.38 µM)
Fusobacterium varium
  MIC: > 128 µg/mL
  MIC50: > 128 µg/mL
  MIC90: > 128 µg/mL
